Reference: patent US20160235781A1, “DIURETIC INDUCED ALTERATIONS OF PLASMA VOLUME” (MAST THERAPEUTICS, INC., priority 2013, published 2016)

Test: Example 2: diuretic induced hemo-concentration patient, transthoracic echocardiography and body weight
Format: in vivo, human
Experimental: A person weighing 180 pounds, with a history of a prior myocardial infarction, was hospitalized with fatigue, peripheral edema and difficulty in breathing. […] Diuretic therapy effected by administering IV bolus doses of 150 mg furosemide every 12 hours was started. Their body weight measurement after 48 hours of furosemide treatment was 172 pounds.
The patient was continued on furosemide and a 15% solution of purified poloxamer 188 in citrate buffered saline was administered at a dose of 250 mg/kg as an IV infusion over a period of 1 hour. Twenty-four hours later, their body weight was 168 pounds.

NS(=O)(=O)c1cc(C(=O)O)c(NCc2ccco2)cc1Cl [furosemide]
body weight (after 48 hours of furosemide 150 mg IV bolus every 12 hours, 180 pounds at admission): 172 pounds
ejection fraction (after 48 hours of furosemide alone, 30% at admission): 29%
